Where two headings read alike, the source gives them in different places.
Experiments:
[1] = tested on: SF-539; assay: NCI one-dose screening, CNS cancer SF-539; format: cell-based, human; conditions: SF-539, 10 μM
[2] = tested on: PC-3; assay: NCI one-dose screening, prostate cancer PC-3; format: cell-based, human; conditions: PC-3, 10 μM
[3] = tested on: HL-60, TB; assay: NCI one-dose screening, leukemia HL-60, TB; format: cell-based, human; conditions: HL-60(TB)
[4] = tested on: PRMI-8226 cell line; assay: NCI one-dose screening, leukemia PRMI-8226; format: cell-based, human; conditions: RPMI-8226, 10 μM
[5] = tested on: NCI-H23; assay: NCI one-dose screening, non-small cell lung cancer NCI-H23; format: cell-based, human; conditions: NCI-H23, 10 μM
[6] = tested on: NCI-H322M; assay: NCI one-dose screening, non-small cell lung cancer NCI-H322M; format: cell-based, human
[7] = tested on: NCl/ADR-RES; assay: NCI one-dose screening, breast cancer NCl/ADR-RES; format: cell-based, human; conditions: Ovarian cancer, NCI/ADR-RES
[8] = tested on: BT-549; assay: NCI one-dose screening, breast cancer BT-549; format: cell-based, human; conditions: BT-549, 10 μM
[9] = tested on: RXF, 393; assay: NCI one-dose screening, renal cancer RXF, 393; format: cell-based, human; conditions: RXF 393, 10 μM
[10] = tested on: NCI-H522; assay: NCI one-dose screening, non-small cell lung cancer NCI-H522; format: cell-based, human; conditions: NCI-H522, 10 μM
[11] = tested on: M14; assay: NCI one-dose screening, melanoma M14; format: cell-based, human; conditions: M14, 10 μM
[12] = tested on: U251; assay: NCI one-dose screening, CNS cancer U251; format: cell-based, human; conditions: U251, 10 μM
[13] = tested on: SF-295; assay: NCI one-dose screening, CNS cancer SF-295; format: cell-based, human; conditions: SF-295, 10 μM
[14] = tested on: HCC-2998; assay: NCI one-dose screening, colon cancer HCC-2998; format: cell-based, human; conditions: HCC-2998, 10 μM
[15] = tested on: CCRF-CEM; assay: NCI screening platform one-dose single concentration screening, leukemia CCRF-CEM; format: cell-based, human; conditions: CCRF-CEM
[16] = tested on: HOP-92; assay: NCI one-dose screening, non-small cell lung cancer HOP-92; format: cell-based, human; conditions: HOP-92, 10 μM
[17] = Non-small cell lung cancer, NCI-H322M, 10 μM

SMILES | Growth Percent (10 μM) [1] [%] | Growth Percent (10 μM) [2] [%] | Growth Percent (10 μM) [3] [%] | Growth Percent (10 μM) [4] [%] | Growth Percent (10 μM) [5] [%] | Growth Percent (10 μM) [6, 17] [%] | Growth Percent (10 μM) [7] [%] | Growth Percent (10 μM) [8] [%] | Growth Percent (10 μM) [9] [%] | Growth Percent (10 μM) [10] [%] | Growth Percent (10 μM) [11] [%] | Growth Percent (10 μM) [12] [%] | Growth Percent (10 μM) [13] [%] | Growth Percent (10 μM) [14] [%] | Growth Percent (10 μM) [15] [%] | melting point [°C] | Growth Percent (10 μM) [16] [%] | Growth Percent (10 μM) [6] [%]
Cc1ccc(Nc2cc3c(c4nsnc24)C(=O)c2ccccc2C3=O)cc1 [C64, 4-(p-tolylamino)anthra[2,1-c][1,2,5] thiadiazol-6,11-dione] | 70.48 | 45.73 | 46.13 | 21.59 | 45.87 | 94.85 | 61.34 | 76.36 | 71.05 | 53.06 | 76.72 | 34.17 | 75.76 | 95.82 | 59.59 |  |  | 
CC(C)Sc1cc2c(c3nsnc13)C(=O)c1ccccc1C2=O [C18, 4-(isopropylthio)anthra[2,1-c][1,2,5] thiadiazol-6,11-dione] | −47.01 | −13.43 | −41.24 | −38.03 | −42.19 | −0.80 | −24.93 | 10.84 | 13.64 | −59.54 | −31.54 | −23.10 | −16.57 | 21.00 | −45.05 | 193 to 194 |  | 
CN(C)CCNc1cc2c(c3nsnc13)C(=O)c1ccccc1C2=O [C8] | −82.05 | −18.35 | −10.38 | −29.81 | −43.43 |  | −23.20 | −99.43 | −59.58 | −91.81 | −96.08 | −55.42 | −55.73 | −86.18 | −12.55 |  | −25.30 | −56.32
O=C1c2ccccc2C(=O)c2c1cc(N1CCCC1)c1nsnc21 [C7, 4-(pyrrolidine-1-yl)anthra-[2,1-c][1,2,5] thiadiazol-6,11-dione] | 97.27 | 71.01 | 104.58 | 76.16 | 59.74 | 82.34 | 86.36 | 86.83 | 97.02 | 83.41 | 94.61 | 80.49 | 87.02 | 104.58 | 86.62 |  |  | 

Reference: patent US8877748B2, “Heterocyclic fused anthraquinone derivatives, manufacturing method and pharmaceutical composition using thereof” (National Defense Medical Center, priority 2012, dated 2014)
